≈ marks a conversion by molar mass, not a printed value. Calls of active or inactive are those of the source. The calls are words filed in the database; no cut-off is given here.
What was measured:
Candida albicans [1] = test: Antimicrobial activity against Candida albicans MTCC 3017 assessed as growth inhibition at 4 mg/ml after 24 hrs by agar well diffusion method; type: functional; conditions: MTCC 3017, 24 h, read-out: DIZ
Saccharomyces cerevisiae [2] = test: Antimicrobial activity against Saccharomyces cerevisiae MTCC 170 assessed as growth inhibition after 24 hrs by agar well diffusion method; type: functional
Staphylococcus aureus [3] = test: Antimicrobial activity against Staphylococcus aureus MTCC 96 assessed as growth inhibition at 4 mg/ml after 24 hrs by agar well diffusion method; type: functional; conditions: for zone of inhibition at 4000 µg/mL: MTCC 96, 24 h, read-out: DIZ
Rattus norvegicus [4] = test: Antiinflammatory activity against carrageenan-induced paw edema male Wistar albino rat at 50 mg/kg, ip administered 30 mins prior to carrageenan-challenge measured after 4 hrs relative to control; type: functional; conditions: route intraperitoneal
Saccharomyces cerevisiae [5] = test: Antimicrobial activity against Saccharomyces cerevisiae MTCC 170 assessed as growth inhibition at 4 mg/ml after 24 hrs by agar well diffusion method; type: functional; conditions: for zone of inhibition at 4000 µg/mL: MTCC 170, 24 h, read-out: DIZ
Rattus norvegicus [6] = test: Antiinflammatory activity against carrageenan-induced paw edema male Wistar albino rat at 50 mg/kg, ip administered 30 mins prior to carrageenan-challenge measured after 1 hr relative to control; type: functional; conditions: route intraperitoneal
Rattus norvegicus [7] = test: Antiinflammatory activity against carrageenan-induced paw edema male Wistar albino rat assessed as edema volume at 50 mg/kg, ip administered 30 mins prior to carrageenan-challenge measured after 2 hrs (reference value: 1.21 +/- 0.16 mL); type: functional; conditions: route intraperitoneal
Bacillus subtilis [8] = test: Antimicrobial activity against Bacillus subtilis MTCC 121 assessed as growth inhibition after 24 hrs by agar well diffusion method; type: functional
Pseudomonas aeruginosa = conditions: MTCC 741, 4 mg/ml
Description: Antimicrobial activity against Pseudomonas aeruginosa MTCC 741 assessed as growth inhibition at 4 mg/ml after 24 hrs by agar well diffusion method

Bacillus subtilis [9] = test: Antimicrobial activity against Bacillus subtilis MTCC 121 assessed as growth inhibition at 4 mg/ml after 24 hrs by agar well diffusion method; type: functional; conditions: for zone of inhibition at 4000 µg/mL: MTCC 121, 24 h, read-out: DIZ
Rattus norvegicus [10] = test: Antiinflammatory activity against carrageenan-induced paw edema male Wistar albino rat assessed as edema volume at 50 mg/kg, ip administered 30 mins prior to carrageenan-challenge measured after 3 hrs (reference value: 1.73 +/- 0.09 mL); type: functional; conditions: route intraperitoneal
Staphylococcus aureus [11] = test: Antimicrobial activity against Staphylococcus aureus MTCC 96 assessed as growth inhibition after 24 hrs by agar well diffusion method; type: functional
Rattus norvegicus [12] = test: Antiinflammatory activity against carrageenan-induced paw edema male Wistar albino rat assessed as edema volume at 50 mg/kg, ip administered 30 mins prior to carrageenan-challenge measured after 4 hrs (reference value: 1.88 +/- 0.20 mL); type: functional; conditions: route intraperitoneal
Rattus norvegicus [13] = test: Antiinflammatory activity against carrageenan-induced paw edema male Wistar albino rat assessed as edema volume at 50 mg/kg, po administered 30 mins prior to carrageenan-challenge measured after 1 hr (reference value: 1.11 +/- 0.12 mL); type: functional
Escherichia coli = test: Antimicrobial activity against Escherichia coli MTCC 1652 assessed as growth inhibition at 4 mg/ml after 24 hrs by agar well diffusion method; type: functional, organism-based
Candida albicans [14] = test: Antimicrobial activity against Candida albicans MTCC 3017 assessed as growth inhibition after 24 hrs by agar well diffusion method; type: functional; conditions: MTCC 3017, 24 h
Rattus norvegicus [15] = test: Antiinflammatory activity against carrageenan-induced paw edema male Wistar albino rat at 50 mg/kg, ip administered 30 mins prior to carrageenan-challenge measured after 2 hrs relative to control; type: functional; conditions: route intraperitoneal
Rattus norvegicus [16] = test: Antiinflammatory activity against carrageenan-induced paw edema male Wistar albino rat at 50 mg/kg, ip administered 30 mins prior to carrageenan-challenge measured after 3 hrs relative to control; type: functional; conditions: route intraperitoneal

| Compound | zone of inhibition at 4000 µg/mL (Candida albicans [1]) [mm] | MIC (Saccharomyces cerevisiae [2]; MTCC 170, 24 h) [µg/mL] | zone of inhibition at 4000 µg/mL (Staphylococcus aureus [3]) [mm] | Activity (Rattus norvegicus [4]) [%] | zone of inhibition at 4000 µg/mL (Saccharomyces cerevisiae [5]) [mm] | Activity (Rattus norvegicus [6]) [%] | Activity (Rattus norvegicus [7]) [mL] | MIC (Bacillus subtilis [8]; MTCC 121, 24 h) [µg/mL] | DIZ (Pseudomonas aeruginosa) | zone of inhibition at 4000 µg/mL (Bacillus subtilis [9]) [mm] | Activity (Rattus norvegicus [10]) [mL] | MIC (Staphylococcus aureus [11]; MTCC 96, 24 h) [µg/mL] | Activity (Rattus norvegicus [12]) [mL] | Activity (Rattus norvegicus [13]) [mL] | diameter of the inhibition zone (DIZ) (Escherichia coli) | MIC (Candida albicans [14]) [µg/mL] | Activity (Rattus norvegicus [15]) [%] | Activity (Rattus norvegicus [16]) [%] | MIC (Saccharomyces cerevisiae [2]) | diameter of the inhibition zone (DIZ) (Saccharomyces cerevisiae [5]) | also measured |
| --- | --- | --- | --- | --- | --- | --- | --- | --- | --- | --- | --- | --- | --- | --- | --- | --- | --- | --- | --- | --- | --- |
| COc1ccc(-c2nn(-c3ccccc3)cc2-c2nc(-c3ccc(Cl)cc3)c(C(=O)O)s2)cc1 | 27.6 | 6.25 (≈ 12.8 µM) | 24.6 | 89.36 | 27.6 | 83.78 | 0.26 | 6.25 (≈ 12.8 µM) | inactive | 29.6 | 0.28 | 6.25 (≈ 12.8 µM) | 0.2 | 0.18 | inactive | 6.25 (≈ 12.8 µM) | 78.51 | 83.81 |  |  |  |
| CCOC(=O)c1sc(-c2cn(-c3ccccc3)nc2-c2ccccc2)nc1-c1ccccc1 | 15.3 |  | 14.3 | 87.23 |  | 90.99 | 0.3 | 50 (≈ 111 µM) | inactive | 11 | 0.28 | 50 (≈ 111 µM) | 0.24 | 0.1 | inactive | 50 (≈ 111 µM) | 75.2 | 83.81 | inactive | inactive |  |
| O=C(O)c1sc(-c2cn(-c3ccccc3)nc2-c2ccc(F)cc2)nc1-c1ccc(Cl)cc1 | 20.6 | 25 (≈ 52.5 µM) | 21.6 | 80.31 | 20.6 | 70.27 | 0.64 | 25 (≈ 52.5 µM) | inactive | 18.3 | 0.75 | 25 (≈ 52.5 µM) | 0.37 | 0.33 | inactive | 25 (≈ 52.5 µM) | 47.1 | 56.14 |  |  |  |
| O=C(O)c1sc(-c2cn(-c3ccccc3)nc2-c2ccccc2)nc1-c1ccc(F)cc1 | 25.6 | 25 (≈ 56.6 µM) | 24.6 | 90.95 | 20.6 | 82.88 | 0.16 | 25 (≈ 56.6 µM) | inactive | 18.3 | 0.18 | 12.5 (≈ 28.3 µM) | 0.17 | 0.19 | inactive | 12.5 (≈ 28.3 µM) | 86.77 | 89.59 |  |  |  |
| CCOC(=O)c1sc(-c2cn(-c3ccccc3)nc2-c2ccccc2)nc1-c1ccc(Cl)cc1 | 17.3 |  |  | 87.23 |  | 80.18 | 0.15 |  | inactive |  | 0.24 |  | 0.22 | 0.22 | inactive | 50 (≈ 103 µM) | 87.6 | 87.23 | inactive | inactive | diameter of the inhibition zone (DIZ) (Staphylococcus aureus [3]): inactive; MIC (Bacillus subtilis [8]): inactive; diameter of the inhibition zone (DIZ) (Bacillus subtilis [9]): inactive; MIC (Staphylococcus aureus [11]): inactive |
| CCOC(=O)c1sc(-c2cn(-c3ccccc3)nc2-c2ccc(OC)cc2)nc1-c1ccc(Cl)cc1 | 14.3 |  |  | 71.8 |  | 86.48 | 0.38 | 50 (≈ 96.9 µM) | inactive | 14.3 | 0.38 |  | 0.53 | 0.15 | inactive | 50 (≈ 96.9 µM) | 68.59 | 78.03 | inactive | inactive | diameter of the inhibition zone (DIZ) (Staphylococcus aureus [3]): inactive; MIC (Staphylococcus aureus [11]): inactive |
| COc1ccc(-c2nc(-c3cn(-c4ccccc4)nc3-c3ccc(F)cc3)sc2C(=O)O)cc1 | 15.3 | 50 (≈ 106 µM) | 20.6 | 80.85 | 15.3 | 80.18 | 0.4 | 50 (≈ 106 µM) | inactive | 14.6 | 0.56 | 25 (≈ 53 µM) | 0.36 | 0.22 | inactive | 50 (≈ 106 µM) | 66.94 | 67.63 |  |  |  |
| CCOC(=O)c1sc(-c2cn(-c3ccccc3)nc2-c2ccc(Cl)cc2)nc1-c1ccc(F)cc1 | 17.6 |  | 12 | 89.89 |  | 83.78 | 0.47 | 50 (≈ 99.2 µM) | inactive | 13.3 | 0.5 | 50 (≈ 99.2 µM) | 0.19 | 0.18 | inactive | 50 (≈ 99.2 µM) | 61.15 | 71.09 | inactive | inactive |  |
| O=C(O)c1sc(-c2cn(-c3ccccc3)nc2-c2ccc(Cl)cc2)nc1-c1ccccc1 | 24.6 | 6.25 (≈ 13.6 µM) | 22.6 | 71.27 | 26.6 | 71.17 | 0.46 | 12.5 (≈ 27.3 µM) | inactive | 22.6 | 0.69 | 25 (≈ 54.6 µM) | 0.54 | 0.32 | inactive | 6.25 (≈ 13.6 µM) | 61.98 | 60.11 |  |  |  |
